Source: article PMC8881512 (Nature Communications, 2022)
pIC50: −log10 of the molar value. Values joined by “and” are separate entries in the source; they are usually repeats but may differ in a detail not shown here. Equal values may be shown once.

Tests used:
[1] = biological target: T1, LATS2 (Homo sapiens, UniProt Q9NRM7); experiment: In vitro LATS2 kinase inhibition assay (HTRF); type: biochemical; set-up: key to LATS2 kinase activity: % inhibition = (HIGH − ratio)×100/(HIGH − LOW); settings: for LATS2 kinase activity: Fig.5c; for pIC50: in vitro, 6000 μM ATP, n = 2
T1 construct: purchased Signalchem
T1 sequence (Q9NRM7 1-1088): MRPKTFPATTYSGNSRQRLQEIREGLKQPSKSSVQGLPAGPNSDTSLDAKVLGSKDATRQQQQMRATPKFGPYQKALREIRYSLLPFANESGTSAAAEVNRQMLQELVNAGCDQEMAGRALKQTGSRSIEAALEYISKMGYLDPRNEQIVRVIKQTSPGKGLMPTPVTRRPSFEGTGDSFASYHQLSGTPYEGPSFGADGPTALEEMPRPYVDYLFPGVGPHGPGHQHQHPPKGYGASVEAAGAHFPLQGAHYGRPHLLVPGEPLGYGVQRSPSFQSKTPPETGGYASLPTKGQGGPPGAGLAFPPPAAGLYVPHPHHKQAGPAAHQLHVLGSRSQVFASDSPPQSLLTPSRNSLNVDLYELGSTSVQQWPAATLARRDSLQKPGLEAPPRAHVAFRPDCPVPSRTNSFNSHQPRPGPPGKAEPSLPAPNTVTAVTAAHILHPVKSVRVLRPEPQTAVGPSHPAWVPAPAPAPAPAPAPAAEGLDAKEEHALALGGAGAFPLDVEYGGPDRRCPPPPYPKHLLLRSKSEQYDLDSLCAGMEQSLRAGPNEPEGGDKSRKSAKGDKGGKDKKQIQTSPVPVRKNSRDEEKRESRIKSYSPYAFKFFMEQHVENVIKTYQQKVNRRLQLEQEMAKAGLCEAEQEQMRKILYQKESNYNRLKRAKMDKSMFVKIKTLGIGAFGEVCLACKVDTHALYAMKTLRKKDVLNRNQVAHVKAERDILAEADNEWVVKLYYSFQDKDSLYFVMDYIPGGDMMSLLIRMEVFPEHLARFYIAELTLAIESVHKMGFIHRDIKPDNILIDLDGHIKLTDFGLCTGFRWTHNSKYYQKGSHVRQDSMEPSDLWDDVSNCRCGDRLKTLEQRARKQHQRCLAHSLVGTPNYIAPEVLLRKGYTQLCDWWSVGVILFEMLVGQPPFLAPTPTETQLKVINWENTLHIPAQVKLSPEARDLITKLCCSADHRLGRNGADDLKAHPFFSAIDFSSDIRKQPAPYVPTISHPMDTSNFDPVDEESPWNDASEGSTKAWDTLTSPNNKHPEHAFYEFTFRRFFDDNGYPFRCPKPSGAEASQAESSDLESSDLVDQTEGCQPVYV
Experimental: The kinase activity of LATS1 and LATS2 were performed based on an adapted and optimised HTRF Kinase Binding assay (Cisbio). Briefly, the concentration-response curves with compound concentration range of 10,000 to 0.17 nM with 3-fold serial dilution and 1X Kinase enzymatic buffer (Cisbio), 1.2 nM LATS1 or LATS2 kinases (Signalchem), 0.5 μM biotinylation labelled YAP peptide (Vivace) were dispensed into 384-well microplates by automated digital dispenser Echo/POD with the final DMSO concentration in all wells at 0.5%. To start the enzymatic reaction, 3000 μM ATP (for LATS1) or 6000 μM ATP (for LATS2) were added using multidrop in a 10-μl volume and incubated for 90 min at 30 °C. Subsequently, 10 μl of HTRF KinEASE detection buffer (Cisbio) containing 31.25 nM acceptor conjugate (streptavidin-XL665) and 1:100 donor conjugate (TK antibody labelled with Eu^3+-Cryptate) mixture were added and incubated at RT for 60 min, and the fluorescence emission at two different wavelengths was measured (615 nm and 665 nm) on Envision. […] The inhibition was calculated by the formula, inhibition % = (HIGH − ratio) × 100/ (High − LOW). HIGH control stands for 0.5% DMSO with kinase and LOW control stands for 0.5% DMSO without kinase. The data was analysed by Xlfit software. The IC50 values were determined by fitting to a standard four-parameter logistic using GraphPad Prism.

[2] = test system: YAP/TAZ target, ESR1 and ERα target gene mRNA in BTO-02; experiment: qPCR gene expression in breast tumour organoids BTO-02; type: cell-based, human; settings: BTO-02, 2 μM for 2 days; for ANKRD1 mRNA (qPCR, relative to DMSO) / CTGF mRNA (qPCR, relative to DMSO) / CYR61 mRNA (qPCR, relative to DMSO) / VGLL3 mRNA (qPCR, relative to DMSO): Fig.5g; for ESR1 mRNA (qPCR, relative to DMSO) / GREB1 mRNA (qPCR, relative to DMSO) / TFF1 mRNA (qPCR, relative to DMSO): Fig.5h;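 for all read-outs here: relative mRNA abundance computed by the ΔCt approach from SYBR-based real-time qPCR, with GAPDH as internal housekeeping reference for normalisation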
[3] = test system: Phospho-YAP (Ser127) in 4T1 cells; experiment: Cellular Phospho-YAP HTRF assay, 4T1; type: cell-based; settings: for YAP phosphorylation: 4T1, Fig.5d
[4] = test system: ER+ breast tumour organoids (BTO-02); experiment: 3D organoids drug response assay (CellTiter-Glo 3D); type: cell-based, human; settings: 3D drug killing assay; 12 days after compound treatment; Fig. 6b
Experimental: Breast tumour organoids were dissociated into single cells using TrypLE Express and counted with automated cell counter. Subsequently, 1000 cells were mixed in 10 μl BME type 2, seeded onto 96-well plate in triplicate and overlaid with 100 μl BC organoid medium (BOM) after BME gelation. Three days after organoids sphere formation, medium was removed and replaced by 100 μl of complete medium containing VT02956 (0, 0.04, 0.2, 1, 5 μM) or vehicle (DMSO). The drug-containing medium was refreshed every 3 days for additional 3–4 times. At the end of the treatment, the effect of the drugs on the tumour organoids, in terms of the organoids cell growth, was assayed with CellTiter-Glo 3D (Promega) according to the manufacturer’s instructions and were normalised to vehicle controls (0.5% DMSO content). The IC50 values was calculated in GraphPad Prism 8.

[5] = biological target: T2, p70S6Kb/RPS6KB2 (Homo sapiens, UniProt Q9UBS0); experiment: Kinome profiling; type: biochemical; settings: VT02956 (5 nM), read-out: % enzymatic activity relative to DMSO controls
T2 construct: LATS1/LATS2 enzymes from Signalchem
T2 sequence (Q9UBS0 whole entry): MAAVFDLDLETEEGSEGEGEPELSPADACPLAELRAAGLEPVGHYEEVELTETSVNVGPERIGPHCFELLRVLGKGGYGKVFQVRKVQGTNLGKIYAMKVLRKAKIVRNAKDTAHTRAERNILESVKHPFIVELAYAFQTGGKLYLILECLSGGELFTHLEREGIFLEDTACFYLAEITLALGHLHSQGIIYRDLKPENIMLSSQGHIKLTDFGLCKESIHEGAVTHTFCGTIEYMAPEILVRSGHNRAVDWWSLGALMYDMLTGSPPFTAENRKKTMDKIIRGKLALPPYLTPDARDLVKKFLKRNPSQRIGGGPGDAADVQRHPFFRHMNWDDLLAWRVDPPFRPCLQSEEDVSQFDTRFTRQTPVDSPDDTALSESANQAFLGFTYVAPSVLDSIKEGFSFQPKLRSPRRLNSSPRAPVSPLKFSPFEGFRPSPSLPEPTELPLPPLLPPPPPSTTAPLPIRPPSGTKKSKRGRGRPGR

[6] = biological target: T3, AKT1 (Homo sapiens, UniProt P31749); experiment: Kinome profiling; type: biochemical; settings: VT02956 (5 nM)
T3 construct: LATS1/LATS2 enzymes from Signalchem
T3 sequence (P31749 whole entry): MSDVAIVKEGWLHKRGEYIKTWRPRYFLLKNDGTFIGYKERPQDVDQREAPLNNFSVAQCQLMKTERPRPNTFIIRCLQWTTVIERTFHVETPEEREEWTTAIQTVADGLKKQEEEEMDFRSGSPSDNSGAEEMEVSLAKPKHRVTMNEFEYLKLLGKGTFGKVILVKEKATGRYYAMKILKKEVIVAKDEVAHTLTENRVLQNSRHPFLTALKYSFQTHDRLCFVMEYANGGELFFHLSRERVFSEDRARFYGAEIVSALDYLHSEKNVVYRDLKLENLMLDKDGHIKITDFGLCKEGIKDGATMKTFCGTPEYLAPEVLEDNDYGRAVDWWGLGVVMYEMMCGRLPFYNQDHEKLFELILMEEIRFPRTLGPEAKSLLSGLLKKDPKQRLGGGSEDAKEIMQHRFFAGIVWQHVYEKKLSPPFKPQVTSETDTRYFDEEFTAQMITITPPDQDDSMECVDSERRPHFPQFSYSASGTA

[7] = biological target: T4, KSR2 (Homo sapiens, UniProt Q6VAB6); experiment: Kinome profiling; type: biochemical; settings: VT02956 (5 nM), read-out: % enzymatic activity relative to DMSO controls
T4 construct: LATS1/LATS2 enzymes from Signalchem
T4 sequence (Q6VAB6 whole entry): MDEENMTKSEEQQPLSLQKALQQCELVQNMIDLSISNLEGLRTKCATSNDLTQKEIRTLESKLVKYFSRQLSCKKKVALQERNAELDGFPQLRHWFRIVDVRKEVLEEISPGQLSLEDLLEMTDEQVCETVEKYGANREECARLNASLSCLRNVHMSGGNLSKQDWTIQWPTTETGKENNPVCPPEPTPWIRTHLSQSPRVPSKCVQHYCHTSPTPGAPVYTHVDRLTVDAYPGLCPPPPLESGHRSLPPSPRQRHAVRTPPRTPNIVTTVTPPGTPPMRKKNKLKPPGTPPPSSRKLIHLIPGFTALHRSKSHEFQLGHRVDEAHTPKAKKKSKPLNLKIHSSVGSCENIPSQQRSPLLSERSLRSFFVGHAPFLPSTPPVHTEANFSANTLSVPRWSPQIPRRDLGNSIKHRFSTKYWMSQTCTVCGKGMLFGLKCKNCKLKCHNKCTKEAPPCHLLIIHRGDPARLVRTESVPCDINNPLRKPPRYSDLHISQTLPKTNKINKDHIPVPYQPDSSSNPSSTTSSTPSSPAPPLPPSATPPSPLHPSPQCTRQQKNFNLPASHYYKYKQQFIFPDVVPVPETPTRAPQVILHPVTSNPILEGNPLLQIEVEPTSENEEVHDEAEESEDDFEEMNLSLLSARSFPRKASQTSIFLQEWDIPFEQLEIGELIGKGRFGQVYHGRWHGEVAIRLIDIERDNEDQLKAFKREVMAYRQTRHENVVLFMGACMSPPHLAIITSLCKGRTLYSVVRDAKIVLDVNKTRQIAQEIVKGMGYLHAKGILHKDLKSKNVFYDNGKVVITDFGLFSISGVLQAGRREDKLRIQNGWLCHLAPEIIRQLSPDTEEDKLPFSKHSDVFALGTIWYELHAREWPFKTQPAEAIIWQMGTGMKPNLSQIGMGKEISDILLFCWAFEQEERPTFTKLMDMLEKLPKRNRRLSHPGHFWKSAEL

[8] = biological target: T5, HGK/MAP4K4 (Homo sapiens, UniProt O95819); experiment: Kinome profiling; type: biochemical; settings: VT02956 (5 nM), read-out: % enzymatic activity relative to DMSO controls
T5 construct: LATS1/LATS2 enzymes from Signalchem
T5 sequence (O95819 whole entry): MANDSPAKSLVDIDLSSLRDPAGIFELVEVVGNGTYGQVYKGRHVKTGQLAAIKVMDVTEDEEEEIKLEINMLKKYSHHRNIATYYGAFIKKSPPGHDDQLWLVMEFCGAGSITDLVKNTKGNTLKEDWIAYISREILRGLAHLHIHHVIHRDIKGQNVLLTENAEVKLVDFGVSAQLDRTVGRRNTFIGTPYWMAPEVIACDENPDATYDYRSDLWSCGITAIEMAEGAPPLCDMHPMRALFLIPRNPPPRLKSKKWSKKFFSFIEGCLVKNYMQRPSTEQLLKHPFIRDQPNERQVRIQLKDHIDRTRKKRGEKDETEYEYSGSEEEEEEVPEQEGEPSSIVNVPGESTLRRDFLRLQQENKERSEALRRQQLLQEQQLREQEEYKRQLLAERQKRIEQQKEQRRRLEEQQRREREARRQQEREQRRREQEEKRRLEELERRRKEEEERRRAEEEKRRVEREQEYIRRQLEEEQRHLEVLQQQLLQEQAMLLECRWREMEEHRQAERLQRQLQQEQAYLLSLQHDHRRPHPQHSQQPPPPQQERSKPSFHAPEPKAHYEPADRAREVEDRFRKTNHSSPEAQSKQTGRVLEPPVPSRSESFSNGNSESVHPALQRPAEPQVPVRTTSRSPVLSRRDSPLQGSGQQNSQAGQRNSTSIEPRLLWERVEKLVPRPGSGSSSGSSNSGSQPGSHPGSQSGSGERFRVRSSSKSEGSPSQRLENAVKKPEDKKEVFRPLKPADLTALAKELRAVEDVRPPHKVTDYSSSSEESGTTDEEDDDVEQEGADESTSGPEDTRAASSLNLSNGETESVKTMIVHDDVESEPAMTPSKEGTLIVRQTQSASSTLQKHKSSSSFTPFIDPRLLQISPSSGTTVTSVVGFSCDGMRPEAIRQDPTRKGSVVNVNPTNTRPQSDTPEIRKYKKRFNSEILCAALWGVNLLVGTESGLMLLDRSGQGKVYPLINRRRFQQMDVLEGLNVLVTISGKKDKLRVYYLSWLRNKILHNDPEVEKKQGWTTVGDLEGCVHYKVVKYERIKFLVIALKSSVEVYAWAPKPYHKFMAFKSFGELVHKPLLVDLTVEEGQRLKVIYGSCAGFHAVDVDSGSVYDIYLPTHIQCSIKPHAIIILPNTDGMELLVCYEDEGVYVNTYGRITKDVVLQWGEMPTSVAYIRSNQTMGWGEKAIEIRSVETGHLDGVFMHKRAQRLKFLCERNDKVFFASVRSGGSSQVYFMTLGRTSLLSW

[9] = biological target: T6, MUSK (Homo sapiens, UniProt O15146); experiment: Kinome profiling; type: biochemical; settings: VT02956 (5 nM), read-out: % enzymatic activity relative to DMSO controls
T6 construct: LATS1/LATS2 enzymes from Signalchem
T6 sequence (O15146 24-869): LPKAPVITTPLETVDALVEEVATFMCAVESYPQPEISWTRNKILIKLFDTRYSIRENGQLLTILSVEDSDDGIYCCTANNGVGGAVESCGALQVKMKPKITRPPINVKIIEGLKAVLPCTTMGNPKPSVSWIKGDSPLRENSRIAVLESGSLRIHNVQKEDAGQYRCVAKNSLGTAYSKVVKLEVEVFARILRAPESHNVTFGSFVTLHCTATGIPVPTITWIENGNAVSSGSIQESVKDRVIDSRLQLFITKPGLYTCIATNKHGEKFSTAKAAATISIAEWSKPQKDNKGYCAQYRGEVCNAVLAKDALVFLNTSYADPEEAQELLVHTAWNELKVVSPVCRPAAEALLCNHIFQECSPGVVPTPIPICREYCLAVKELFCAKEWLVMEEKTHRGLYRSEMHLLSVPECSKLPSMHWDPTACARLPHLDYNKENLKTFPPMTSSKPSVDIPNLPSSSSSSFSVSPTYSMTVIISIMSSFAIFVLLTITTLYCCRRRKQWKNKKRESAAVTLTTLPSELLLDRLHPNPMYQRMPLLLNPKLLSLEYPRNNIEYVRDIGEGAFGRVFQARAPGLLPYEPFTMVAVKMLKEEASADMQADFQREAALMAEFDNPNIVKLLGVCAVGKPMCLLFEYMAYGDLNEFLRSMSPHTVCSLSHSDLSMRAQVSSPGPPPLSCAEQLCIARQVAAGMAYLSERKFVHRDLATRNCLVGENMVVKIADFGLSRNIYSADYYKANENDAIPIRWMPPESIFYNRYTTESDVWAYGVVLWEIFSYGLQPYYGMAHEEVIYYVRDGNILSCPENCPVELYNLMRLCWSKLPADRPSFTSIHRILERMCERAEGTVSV

LATS2 kinase activity ([1]; Conc. 0.00016935 (µM)) | LATS2 kinase activity ([1]; Conc. 0.00050805 (µM)) | LATS2 kinase activity ([1]; Conc. 0.00152416 (µM)) | pIC50 [1] | Compound | ANKRD1 mRNA (qPCR, relative to DMSO) [2] | CTGF mRNA (qPCR, relative to DMSO) [2] | CYR61 mRNA (qPCR, relative to DMSO) [2] | VGLL3 mRNA (qPCR, relative to DMSO) [2] | ESR1 mRNA (qPCR, relative to DMSO) [2] | GREB1 mRNA (qPCR, relative to DMSO) [2] | TFF1 mRNA (qPCR, relative to DMSO) [2] | also measured
96.8406 and 89.7881 | 86.8123 and 94.4369 | 95.4849 and 93.7686 | < 5.00 | CCN(CC)c1nc(-c2ccncc2)nc2c(-c3ccc(Cl)cc3)cccc12 [VT02484] | 1.2497 and 1.0358 and 0.9991 | 1.029 and 0.9638 and 0.9395 | 1.1798 and 0.914 and 0.9308 | 1.193 and 1.051 and 1.05 | 1.0519 and 1.0384 and 1.0263 | 1.1915 and 1.2181 and 1.0643 | 1.1521 and 1.0774 and 1.1271 | LATS2 kinase activity ([1]; Conc. 0.00457247 (µM)): 92.5091 and 95.5041; LATS2 kinase activity ([1]; Conc. 0.0137174 (µM)): 94.4128 and 88.6006; LATS2 kinase activity ([1]; Conc. 0.0411523 (µM)): 86.8411 and 90.365; LATS2 kinase activity ([1]; Conc. 0.123457 (µM)): 93.2446 and 92.7206; LATS2 kinase activity ([1]; Conc. 0.37037 (µM)): 94.4513 and 95.1243; LATS2 kinase activity ([1]; Conc. 1.11111 (µM)): 88.3362 and 87.5718; LATS2 kinase activity ([1]; Conc. 3.33333 (µM)): 84.322 and 85.4373; LATS2 kinase activity ([1]; Conc. 10 (µM)): 81.6154 and 76.4186
60.6319 and 66.1157 | 35.6649 and 36.636 | 7.393 and 7.887 | 9.28 | NCC1CCN(c2nc(-c3ccncc3)nc3c(C#CCO)cccc23)CC1 [VT02956] | 120.896 and 131.016 and 139.426 | 10.8797 and 10.8657 and 10.8616 | 13.1424 and 13.7264 and 12.9668 | 31.437 and 32.235 and 31.533 | 0.1649 and 0.1855 and 0.1729 | 0.3079 and 0.3261 and 0.3014 | 0.0863 and 0.0862 and 0.094 | YAP phosphorylation ([3]; Conc. 0.00457247 (µM)): 95.8709 and 110.479; YAP phosphorylation ([3]; Conc. 0.0137174 (µM)): 110.398 and 92.919; YAP phosphorylation ([3]; Conc. 0.0411523 (µM)): 99.5656 and 109.183; YAP phosphorylation ([3]; Conc. 0.123457 (µM)): 90.8642 and 77.798; YAP phosphorylation ([3]; Conc. 0.37037 (µM)): 55.9969 and 62.3937; pIC50 ([3]; Mus musculus, 4T1 cells, read-out: YAP phosphorylation IC50): 6.37; growth of ER+ breast tumour organoids (BTOs) [4]: sensitive; remaining activity at 0.005 µM [5]: 65%; % enzymatic activity relative to DMSO controls [6]: 78%; remaining activity at 0.005 µM [7]: 83%; remaining activity at 0.005 µM [8]: 85%; remaining activity at 0.005 µM [9]: 85%
